Values after ≈ are worked out from the molar mass of the structure shown.
Experiments:
Assay in all cases: In vitro antibacterial evaluation: minimum inhibitory concentration (MIC), broth dilution method
Type in all cases: cell-based
Staphylococcus sp. = details: for MIC Coagulase Negative Staphylococcus (GC 6257): strain GC 6257; for MIC Staphylococcus aureus (GC 3051): strain GC 3051; for MIC Staphylococcus aureus (GC 3053): strain GC 3053
Method in brief: (§1)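 Values are minimum inhibitory concentrations, meaning the smallest antibiotic concentration that stops growth of the organism. They come from broth dilution in Muller-Hinton II […] per NCCLS guidance (M7-A2), using 5×10^5 CFU/mL and concentrations from 64 to 0.06 μg/mL.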

Streptococcus sp. = details: 18 hours at 35° C.
Method in brief: as §1

Enterococcus sp. = details: 18 hours at 35° C.
Method in brief: as §1

Escherichia coli = details: 18 hours at 35° C.
Method in brief: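 NCCLS M7-A2 broth dilution; Muller-Hinton II […]; 5×10^5 CFU/mL; 64-0.06 μg/mL. MIC = lowest concentration with no growth.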

[1] = Streptococcus agalactiae (GC 4564)
[2] = Streptococcus pneumoniae (GC 4565)
[3] = Enterococcus faecalis (ATCC 29212)
[4] = Enterococcus faecalis (GC 2242)
[5] = Enterococcus faecalis (GC 4552)
[6] = Enterococcus faecalis (GC 4553)
[7] = Enterococcus faecalis (GC 4554)
[8] = broth dilution, 18 hours at 35° C.
[9] = broth dilution, inoculum 5×10^5 CFU/mL

CCCCCNC(=O)OCC1OC(OC2C(CO)OC(Oc3ccc(CC4NC(=O)C(C(C)c5ccccc5)NC(=O)CNC(=O)C(CO)NC(=O)C(C(O)C5CNC(=N)N5C5OC(CO)C(O)C(O)C5O)NC(=O)C(C(O)C5CNC(=N)N5)NC4=O)cc3)C(O)C2O)C(O)C(O)C1O (stereo not drawn) [Example 251b, γ-O-[(Pentylamino)carbonyl]-cyclo[glycyl-β-methylphenylalanyl-O-(4-O-hexopyranosylhexopyranosyl)tyrosyl-3-(2-iminoimidazolidin-4-yl)seryl-3-(3-hexopyranosyl-2-iminoimidazolidin-4-yl)serylseryl]]
MIC Coagulase Negative Staphylococcus (GC 4547) (Staphylococcus sp.; Coagulase Negative Staphylococcus (GC 4547), 18 hours at 35° C.): 8 µg/mL (≈ 5.68 µM) | MIC Coagulase Negative Staphylococcus (GC 4548) (Staphylococcus sp.; Coagulase Negative Staphylococcus (GC 4548), 18 hours at 35° C.): 8 µg/mL (≈ 5.68 µM) | MIC Coagulase Negative Staphylococcus (GC 4549) (Staphylococcus sp.; Coagulase Negative Staphylococcus (GC 4549), 18 hours at 35° C.): 4 µg/mL (≈ 2.84 µM) | MIC Coagulase Negative Staphylococcus (GC 4551) (Staphylococcus sp.; Coagulase Negative Staphylococcus (GC 4551), 18 hours at 35° C.): 16 µg/mL (≈ 11.4 µM) | MIC Coagulase Negative Staphylococcus (ID-3941) (Staphylococcus sp.; Coagulase Negative Staphylococcus (ID-3941), 18 hours at 35° C.): 4 µg/mL (≈ 2.84 µM) | MIC Staphylococcus aureus (ATCC 29213) (Staphylococcus sp.; Staphylococcus aureus (ATCC 29213), 18 hours at 35° C.): 16 µg/mL (≈ 11.4 µM) | MIC Staphylococcus aureus (GC 1131) (Staphylococcus sp.; Staphylococcus aureus (GC 1131), 18 hours at 35° C.): 8 µg/mL (≈ 5.68 µM) | MIC Staphylococcus aureus (GC 4541) (Staphylococcus sp.; Staphylococcus aureus (GC 4541), 18 hours at 35° C.): 8 µg/mL (≈ 5.68 µM) | MIC Staphylococcus aureus (GC 4542) (Staphylococcus sp.; Staphylococcus aureus (GC 4542), 18 hours at 35° C.): 8 µg/mL (≈ 5.68 µM) | MIC Staphylococcus aureus (GC 4544) (Staphylococcus sp.; Staphylococcus aureus (GC 4544), 18 hours at 35° C.): 16 µg/mL (≈ 11.4 µM) | MIC Staphylococcus aureus (GC 4545) (Staphylococcus sp.; Staphylococcus aureus (GC 4545), 18 hours at 35° C.): 8 µg/mL (≈ 5.68 µM) | MIC Staphylococcus aureus-SMITH (GC 4543) (Staphylococcus sp.; Staphylococcus aureus-SMITH (GC 4543), 18 hours at 35° C.): 8 µg/mL (≈ 5.68 µM) | MIC Staphylococcus haemolyticus (GC 4546) (Staphylococcus sp.; Staphylococcus haemolyticus (GC 4546), 18 hours at 35° C.): 8 µg/mL (≈ 5.68 µM) | MIC Streptococcus agalactiae (GC 4564) (Streptococcus sp.; [1]): 4 µg/mL (≈ 2.84 µM) | MIC Streptococcus pneumoniae (GC 4565) (Streptococcus sp.; [2]): 1 µg/mL (≈ 0.71 µM) | MIC Streptococcus pyogenes (ID-3187) (Streptococcus sp.; Streptococcus pyogenes (ID-3187)): 2 µg/mL (≈ 1.42 µM) | MIC Enterococcus avium (GC 4558) (Enterococcus sp.; Enterococcus avium (GC 4558)): 64 µg/mL (≈ 45.4 µM) | MIC Enterococcus faecalis (ATCC 29212) (Enterococcus sp.; [3]): 64 µg/mL (≈ 45.4 µM) | MIC Enterococcus faecalis (GC 2242) (Enterococcus sp.; [4]): 32 µg/mL (≈ 22.7 µM) | MIC Enterococcus faecalis (GC 4552) (Enterococcus sp.; [5]): 64 µg/mL (≈ 45.4 µM) | MIC Enterococcus faecalis (GC 4553) (Enterococcus sp.; [6]): 64 µg/mL (≈ 45.4 µM) | MIC Enterococcus faecalis (GC 4554) (Enterococcus sp.; [7]): 64 µg/mL (≈ 45.4 µM) | MIC Enterococcus faecium (GC 2243) (Enterococcus sp.; Enterococcus faecium (GC 2243)): 64 µg/mL (≈ 45.4 µM) | MIC Enterococcus faecium (GC 4556) (Enterococcus sp.; Enterococcus faecium (GC 4556)): 64 µg/mL (≈ 45.4 µM) | MIC Enterococcus faecium (GC 4557) (Enterococcus sp.; Enterococcus faecium (GC 4557)): 4 µg/mL (≈ 2.84 µM) | MIC Escherichia coli (ATCC 25922) (Escherichia coli): >64 µg/mL | MIC Escherichia coli (GC 4559) (Escherichia coli): >64 µg/mL | MIC Escherichia coli (GC 4560) (Escherichia coli): 2 µg/mL (≈ 1.42 µM)

Cyclo[glycyl-4-chloro-β-methylphenylalanyl-O-[4-O-(4,6-O-cyclopentylidenehexopyranosyl)-hexopyranosyl]tyrosyl-3-(2-iminoimidazolidin-4-yl)seryl-3-(3-hexopyranosyl-2-iminoimidazolidin-4-yl)serylseryl] [Example 202]
MIC Staphylococcus aureus-SMITH (GC 4543) (Staphylococcus sp.; broth dilution, 18 hours at 35° C., strain GC 4543): 4 µg/mL | MIC Staphylococcus haemolyticus (GC 4546) (Staphylococcus sp.; broth dilution, 18 hours at 35° C., strain GC 4546): 2 µg/mL | MIC Coagulase Negative Staphylococcus (GC 4547) (Staphylococcus sp.; broth dilution, 18 hours at 35° C., strain GC 4547): 2 µg/mL | MIC Coagulase Negative Staphylococcus (GC 4548) (Staphylococcus sp.; broth dilution, 18 hours at 35° C., strain GC 4548): 2 µg/mL | MIC Coagulase Negative Staphylococcus (GC 4549) (Staphylococcus sp.; broth dilution, 18 hours at 35° C., strain GC 4549): 4 µg/mL | MIC Coagulase Negative Staphylococcus (GC 4551) (Staphylococcus sp.; broth dilution, 18 hours at 35° C., strain GC 4551): 4 µg/mL | MIC Coagulase Negative Staphylococcus (GC 6257) (Staphylococcus sp.; [8]): 2 µg/mL | MIC Staphylococcus aureus (ATCC 29213) (Staphylococcus sp.; strain ATCC 29213): 4 µg/mL | MIC Staphylococcus aureus (ATCC 29213) (Staphylococcus sp.; strain ATCC 29213, broth dilution, 18 hours at 35° C.): 4 µg/mL | MIC Staphylococcus aureus (GC 1131) (Staphylococcus sp.; strain GC 1131): 4 µg/mL | MIC Staphylococcus aureus (GC 1131) (Staphylococcus sp.; strain GC 1131, broth dilution, 18 hours at 35° C.): 4 µg/mL | MIC Staphylococcus aureus (GC 3051) (Staphylococcus sp.): 4 µg/mL | MIC Staphylococcus aureus (GC 3051) (Staphylococcus sp.; [8]): 4 µg/mL | MIC Staphylococcus aureus (GC 3053) (Staphylococcus sp.): 8 µg/mL | MIC Staphylococcus aureus (GC 3053) (Staphylococcus sp.; [8]): 8 µg/mL | MIC Staphylococcus aureus (GC 4541) (Staphylococcus sp.; strain GC 4541): 4 µg/mL | MIC Staphylococcus aureus (GC 4541) (Staphylococcus sp.; strain GC 4541, broth dilution, 18 hours at 35° C.): 4 µg/mL | MIC Staphylococcus aureus (GC 4542) (Staphylococcus sp.; strain GC 4542): 4 µg/mL | MIC Staphylococcus aureus (GC 4542) (Staphylococcus sp.; strain GC 4542, broth dilution, 18 hours at 35° C.): 4 µg/mL | MIC Staphylococcus aureus-SMITH (GC 4543) (Staphylococcus sp.; strain GC 4543): 4 µg/mL | MIC Staphylococcus aureus (GC 4544) (Staphylococcus sp.; strain GC 4544): 4 µg/mL | MIC Staphylococcus aureus (GC 4544) (Staphylococcus sp.; strain GC 4544, broth dilution, 18 hours at 35° C.): 4 µg/mL | MIC Staphylococcus aureus (GC 4545) (Staphylococcus sp.; strain GC 4545): 4 µg/mL | MIC Staphylococcus aureus (GC 4545) (Staphylococcus sp.; strain GC 4545, broth dilution, 18 hours at 35° C.): 4 µg/mL | MIC Staphylococcus haemolyticus (GC 4546) (Staphylococcus sp.; strain GC 4546): 2 µg/mL | MIC Coagulase Negative Staphylococcus (GC 4547) (Staphylococcus sp.; strain GC 4547): 2 µg/mL | MIC Coagulase Negative Staphylococcus (GC 4548) (Staphylococcus sp.; strain GC 4548): 2 µg/mL | MIC Coagulase Negative Staphylococcus (GC 4549) (Staphylococcus sp.; strain GC 4549): 4 µg/mL | MIC Coagulase Negative Staphylococcus (GC 4551) (Staphylococcus sp.; strain GC 4551): 4 µg/mL | MIC Coagulase Negative Staphylococcus (GC 6257) (Staphylococcus sp.): 2 µg/mL | MIC Streptococcus agalactiae (GC 4564) (Streptococcus sp.; [1]): 2 µg/mL | MIC Streptococcus pneumoniae (ATCC 6301) (Streptococcus sp.; Streptococcus pneumoniae (ATCC 6301)): <0.5 µg/mL | MIC Streptococcus pneumoniae (GC 1894) (Streptococcus sp.; Streptococcus pneumoniae (GC 1894)): <0.5 µg/mL | MIC Streptococcus pneumoniae (GC 4565) (Streptococcus sp.; [2]): 8 µg/mL | MIC Streptococcus pyogenes (GC 4563) (Streptococcus sp.; Streptococcus pyogenes (GC 4563)): 1 µg/mL | MIC Streptococcus agalactiae (GC 4564) (Streptococcus sp.; [9]): 2 µg/mL | MIC Streptococcus pneumoniae (ATCC 6301) (Streptococcus sp.; [9]): <0.5 µg/mL | MIC Streptococcus pneumoniae (GC 1894) (Streptococcus sp.; [9]): <0.5 µg/mL | MIC Streptococcus pneumoniae (GC 4565) (Streptococcus sp.; [9]): 8 µg/mL | MIC Streptococcus pyogenes (GC 4563) (Streptococcus sp.; [9]): 1 µg/mL | MIC Enterococcus avium (GC 4558) (Enterococcus sp.; Enterococcus avium (GC 4558)): 32 µg/mL | MIC Enterococcus faecalis (ATCC 29212) (Enterococcus sp.; [3]): 32 µg/mL | MIC Enterococcus faecalis (GC 2242) (Enterococcus sp.; [4]): 16 µg/mL | MIC Enterococcus faecalis (GC 2691) (Enterococcus sp.; Enterococcus faecalis (GC 2691)): 16 µg/mL | MIC Enterococcus faecalis (GC 3059) (Enterococcus sp.; Enterococcus faecalis (GC 3059)): 64 µg/mL | MIC Enterococcus faecalis (GC 4552) (Enterococcus sp.; [5]): 32 µg/mL | MIC Enterococcus faecalis (GC 4553) (Enterococcus sp.; [6]): 32 µg/mL | MIC Enterococcus faecalis (GC 4554) (Enterococcus sp.; [7]): 32 µg/mL | MIC Enterococcus faecalis (GC 6189) (Enterococcus sp.; Enterococcus faecalis (GC 6189)): 16 µg/mL | MIC Enterococcus faecium (GC 2243) (Enterococcus sp.; Enterococcus faecium (GC 2243)): 32 µg/mL | MIC Enterococcus faecium (GC 4556) (Enterococcus sp.; Enterococcus faecium (GC 4556)): 16 µg/mL | MIC Enterococcus faecium (GC 4557) (Enterococcus sp.; Enterococcus faecium (GC 4557)): 4 µg/mL | MIC Enterococcus avium (GC 4558) (Enterococcus sp.; [9]): 32 µg/mL | MIC Enterococcus faecalis (ATCC 29212) (Enterococcus sp.; [9]): 32 µg/mL | MIC Enterococcus faecalis (GC 2242) (Enterococcus sp.; [9]): 16 µg/mL | MIC Enterococcus faecalis (GC 2691) (Enterococcus sp.; [9]): 16 µg/mL | MIC Enterococcus faecalis (GC 3059) (Enterococcus sp.; [9]): 64 µg/mL | MIC Enterococcus faecalis (GC 4552) (Enterococcus sp.; [9]): 32 µg/mL | MIC Enterococcus faecalis (GC 4553) (Enterococcus sp.; [9]): 32 µg/mL | MIC Enterococcus faecalis (GC 4554) (Enterococcus sp.; [9]): 32 µg/mL | MIC Enterococcus faecalis (GC 6189) (Enterococcus sp.; [9]): 16 µg/mL | MIC Enterococcus faecium (GC 2243) (Enterococcus sp.; [9]): 32 µg/mL | MIC Enterococcus faecium (GC 4556) (Enterococcus sp.; [9]): 16 µg/mL | MIC Enterococcus faecium (GC 4557) (Enterococcus sp.; [9]): 4 µg/mL | MIC Escherichia coli (ATCC 25922) (Escherichia coli): 32 µg/mL | MIC Escherichia coli (GC 4559) (Escherichia coli): 16 µg/mL | MIC Escherichia coli (GC 4560) (Escherichia coli): 2 µg/mL

Reference: US8247211B2, “Glycopeptide antibiotics” (American Cyanamid Company, priority 2001, dated 2012)
